Laboratory results: the supplement of paper PMC10307832

Experiments:
Assay in all cases: relative viability (nuclei count vs DMSO), 5 days (fraction); higher = more cells survive
[1] = compound: NCC(=O)Nc1ccc(-n2nc(C(F)(F)F)cc2-c2ccc3c(ccc4ccccc43)c2)cc1 + NC(=O)Nc1cc(-c2cccc(F)c2)sc1C(=O)N[C@H]1CCCNC1 [AZD7762] (partner 0.2 µM)
Outline: (§1)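 Relative viability was taken as the ratio of nuclei in treated wells to nuclei in vehicle wells. Lung cancer cell lines in 1536-well plates received compounds by pin tool one day after seeding, either one drug alone or a fixed anchor-drug dose plus five library-drug doses (not always all listed) in √10 steps. Nuclei were counted on 4× images after 5 days of treatment, and values are medians of duplicate plates.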

[2] = compound: NCC(=O)Nc1ccc(-n2nc(C(F)(F)F)cc2-c2ccc3c(ccc4ccccc43)c2)cc1 + CCNC(=O)c1noc(-c2cc(C(C)C)c(O)cc2O)c1-c1ccc(CN2CCOCC2)cc1 [Luminespib] (partner 0.01 µM)
Outline: as §1

[3] = compound: NCC(=O)Nc1ccc(-n2nc(C(F)(F)F)cc2-c2ccc3c(ccc4ccccc43)c2)cc1 + CS(=O)(=O)CCNCc1ccc(-c2ccc3ncnc(Nc4ccc(OCc5cccc(F)c5)c(Cl)c4)c3c2)o1 [Lapatinib] (partner 2 µM)
Outline: as §1

[4] = compound: NCC(=O)Nc1ccc(-n2nc(C(F)(F)F)cc2-c2ccc3c(ccc4ccccc43)c2)cc1 + COc1cccc2cc(-c3nc([C@H]4CC[C@H](C(=O)O)CC4)n4ncnc(N)c34)[nH]c12 [OSI-027] (partner 0.5 µM)
Outline: as §1

Cell Line | relative viability ([1]; first compound 0.02 µM) | relative viability ([1]; first compound 0.06325 µM) | relative viability ([1]; first compound 0.2 µM) | relative viability ([1]; first compound 0.6325 µM) | relative viability ([1]; first compound 2 µM) | relative viability ([2]; first compound 0.02 µM) | relative viability ([2]; first compound 0.06325 µM) | relative viability ([2]; first compound 0.2 µM) | relative viability ([2]; first compound 0.6325 µM) | relative viability ([2]; first compound 2 µM) | relative viability ([3]; first compound 0.02 µM) | relative viability ([3]; first compound 0.06325 µM) | relative viability ([3]; first compound 0.2 µM) | relative viability ([3]; first compound 0.6325 µM) | relative viability ([3]; first compound 2 µM) | relative viability ([4]; first compound 0.02 µM) | relative viability ([4]; first compound 0.06325 µM) | relative viability ([4]; first compound 0.2 µM) | relative viability ([4]; first compound 0.6325 µM) | relative viability ([4]; first compound 2 µM)
EKVX | 0.748 | 0.823 | 0.651 | 0.607 | 0.738 | 0.957 | 0.923 | 0.894 | 0.842 | 0.909 | 0.213 | 0.216 | 0.228 | 0.223 | 0.203 | 0.729 | 0.646 | 0.673 | 0.674 | 0.737
EMC-BAC-2 | 1.09 | 1.1 | 1.1 | 1.13 | 1.16 | 1.11 | 1.23 | 1.18 | 1.17 | 1.18 | 0.859 | 0.925 | 0.903 | 0.9 | 0.891 | 0.292 | 0.367 | 0.371 | 0.361 | 0.387
EPLC-272H | 0.362 | 0.208 | 0.196 | 0.167 | 0.149 | 0.265 | 0.264 | 0.367 | 0.186 | 0.35 | 0.88 | 1.09 | 0.85 | 0.907 | 1.21 | 0.307 | 0.246 | 0.28 | 0.311 | 0.274
H3255 | 0.853 | 0.914 | 0.959 | 0.974 | 0.898 | 0.781 | 1.03 | 0.9 | 0.777 | 0.984 | 0.276 | 0.268 | 0.231 | 0.258 | 0.268 | 0.557 | 0.617 | 0.629 | 0.667 | 0.596
HARA | 0.227 | 0.429 | 0.304 | 0.392 | 0.473 | 0.773 | 1.03 | 0.735 | 0.484 | 0.818 | 0.649 | 0.801 | 0.829 | 0.822 | 0.989 | 0.434 | 0.582 | 0.597 | 0.549 | 0.596
HCC-15 | 1.28 | 1.13 | 1.21 | 1.36 | 1.06 | 0.332 | 0.306 | 0.302 | 0.365 | 0.335 | 0.847 | 0.876 | 0.839 | 0.821 | 0.812 | 0.675 | 0.679 | 0.689 | 0.658 | 0.697
HCC-44 | 1 | 1.05 | 0.997 | 1.01 | 1.03 | 1.1 | 1.05 | 1.06 | 1.03 | 0.938 | 1.02 | 1.16 | 0.974 | 1.03 | 1.05 | 0.461 | 0.743 | 0.592 | 0.651 | 0.497
HCC-78 | 0.77 | 0.597 | 0.599 | 0.668 | 0.642 | – | – | – | – | – | 0.819 | 1.04 | 0.745 | 0.742 | 0.342 | 0.402 | 0.375 | 0.329 | 0.347 | 0.41
